# From publication PMC6791383, “A side-by-side evaluation of [^18F]FDOPA enantiomers for non-invasive detection of neuroendocrine tumors by positron emission tomography” (Oncotarget, 2019)
# Assays:
# [1] = tested on: STC-1 xenografts; assay: Ex vivo biodistribution in NSG mice bearing STC-1 xenografts; details: for Biodistribution, Bladder / Biodistribution, Blood / Biodistribution, Bone / Biodistribution, Brain / Biodistribution, Fat / Biodistribution, Heart / Biodistribution, Kidneys / Biodistribution, Liver / Biodistribution, Lungs / Biodistribution, Muscle / Biodistribution, Pancreas / Biodistribution, Small Intestines / Biodistribution, Spleen / Biodistribution, Stomach / Biodistribution, Tumor: STC-1 xenograft NSG mice, 1.5MBq i.v.
# Procedure: (§1) All animal studies were carried out according to regulations set forth and approved by the Johns Hopkins Animal Care and Use Committee. Female, 6- to 8-weeks-old immunodeficient NOD scid gamma (NSG) mice were subcutaneously inoculated with 1 million PC12, STC-1 or COLO-320 cells in […] of Hank’s balanced salt solution in the top flank. Tumors of 4–6 mm in diameter (typically 14-21 days post inoculation) were utilized for in vivo imaging or ex vivo biodistribution studies.
# Mice (n=5 per group) were intravenously injected with 1.5MBq (40μCi) of each tracer in 150μL of saline. Ex vivo biodistribution studies were performed at 30min and 120min time points after tracer administration. Blood, liver, spleen, heart, lungs, kidneys, small intestines, stomach, muscle, fat, bone, bladder, brain and tumor tissues were retrieved, weighed, and counted in an automated gamma counter (1282 Compugamma CS). Percentage injected dose per gram (%ID/g) values were calculated based on normalization to external standards, counted in triplicate, and accounted for signal-decay correction.
# [2] = tested on: TGP61 cells; assay: In vitro uptake (binding) assay in TGP61 cells; type: cell-based; details: 30mins incubation, 1 million cells, % incubated dose/million cells
# Procedure: (§2) Both [^18F]FDOPA enantiomers were initially assessed in vitro in all NET cells.
# (§3) In vitro binding assays were carried out, in triplicate, in PBS with 0.5% FBS, for 30mins at ambient temperatures using 1 million cells and repeated three times. Blocking studies were carried out using 10meq of the commercial LAT1 inhibitor, 2-Aminobicyclo[2.2.1]heptane-2-carboxylic acid (TOCRIS, MN, USA). Following incubation with each tracer, cells were rinsed three times with cold PBS prior to being counted on an automated gamma counter (1282 Compugamma CS; Pharmacia/LKBNuclear, Inc.) along with external standards. Obtained counts were converted into percentage incubated dose per million cells based on normalization to external standards. Experiments were performed in triplicate and repeated three times.
# [3] = tested on: STC-1 cells; assay: In vitro uptake (binding) assay in STC-1 cells; type: cell-based; details: 30mins incubation, 1 million cells, % incubated dose/million cells
# Procedure: as §2, §3
# [4] = tested on: STC-1 xenografts; assay: In vivo PET-CT quantitative image analysis, STC-1 xenografts; details: STC-1 tumors, NSG mice, 9MBq
# Procedure: as §1
# (§4) Mice (n=4) were injected with 9MBq (250μCi) of each tracer in 150μL of saline intravenously and anesthetized with 3% isoflurane prior to being placed on the scanner bed. Mice were kept warm with an external light source and maintained at 1% isoflurane levels while being scanned. PET imaging (2 beds; 10 min per bed) was carried out using an ARGUS small-animal PET/CT scanner (Sedecal). A CT scan (512 projections) was obtained at the end of each PET scan for anatomical co-registration. For in vivo blocking experiments, mice were injected with 10meq of LAT1 inhibitor. PET data were reconstructed using the 2-dimensional ordered subsets-expectation maximization algorithm (2D-OSEM) and corrected for dead time and radioactive decay. Data visualization and image generation were carried out using Amira 2019.1 (ThermoFisher Scientific).
# (§5) Quantitative in vivo image analysis was carried out in AMIDE (SourceForge) 1.0.4 utilizing ellipsoid region-of-interest volume integrations with 3 slices entailing a depth of 1.9 mm per slice. The %ID per cc values were calculated based on a calibration factor obtained from a phantom (known radioactive quantity in a known volume).
# [5] = tested on: TGP52 cells; assay: In vitro uptake (binding) assay in TGP52 cells; type: cell-based; details: 30mins incubation, 1 million cells, % incubated dose/million cells
# Procedure: as §2, §3
# [6] = tested on: LAT1; assay: In vivo PET-CT blocking by BCH in NET mouse models; parameters: species or system mice; details: all NET mouse models (PC12, STC-1, COLO-320), 10meq LAT1 inhibitor
# Procedure: as §4, §5
smiles,measurement,setting,value
"N[C@H](Cc1cc(O)c(O)cc1[18F])C(=O)O [D-[^18F]FDOPA, 3,4-dihydroxy-6-[^18F]fluoro-D-phenylalanine]","pancreatic retention, fold lower compared to L-[^18F]FDOPA","[1]; STC-1 mice, 120min p.i.",approximately 2 fold
same,"Biodistribution, Bladder",[1]; 30min p.i.,20.49 %ID/g
same,"Biodistribution, Blood",[1]; 30min p.i.,4.31 %ID/g
same,"Biodistribution, Bone",[1]; 30min p.i.,3.94 %ID/g
same,"Biodistribution, Brain",[1]; 30min p.i.,0.55 %ID/g
same,"Biodistribution, Fat",[1]; 30min p.i.,2.27 %ID/g
same,"Biodistribution, Heart",[1]; 30min p.i.,2.52 %ID/g
same,"Biodistribution, Kidneys",[1]; 30min p.i.,12.32 %ID/g
same,"Biodistribution, Liver",[1]; 30min p.i.,3.85 %ID/g
same,"Biodistribution, Lungs",[1]; 30min p.i.,6.63 %ID/g
same,"Biodistribution, Muscle",[1]; 30min p.i.,1.62 %ID/g
same,"Biodistribution, Pancreas",[1]; 30min p.i.,61.64 %ID/g
same,"Biodistribution, Small Intestines",[1]; 30min p.i.,10.28 %ID/g
same,"Biodistribution, Spleen",[1]; 30min p.i.,17.41 %ID/g
same,"Biodistribution, Stomach",[1]; 30min p.i.,9.37 %ID/g
same,"Biodistribution, Tumor",[1]; 30min p.i.,6.92 %ID/g
same,"Biodistribution, Bladder",[1]; 120min p.i.,7.51 %ID/g
same,"Biodistribution, Blood",[1]; 120min p.i.,1.49 %ID/g
same,"Biodistribution, Bone",[1]; 120min p.i.,5.28 %ID/g
same,"Biodistribution, Brain",[1]; 120min p.i.,1.30 %ID/g
same,"Biodistribution, Fat",[1]; 120min p.i.,1.14 %ID/g
same,"Biodistribution, Heart",[1]; 120min p.i.,1.58 %ID/g
same,"Biodistribution, Kidneys",[1]; 120min p.i.,2.30 %ID/g
same,"Biodistribution, Liver",[1]; 120min p.i.,1.60 %ID/g
same,"Biodistribution, Lungs",[1]; 120min p.i.,2.34 %ID/g
same,"Biodistribution, Muscle",[1]; 120min p.i.,2.66 %ID/g
same,"Biodistribution, Pancreas",[1]; 120min p.i.,9.75 %ID/g
same,"Biodistribution, Small Intestines",[1]; 120min p.i.,3.80 %ID/g
same,"Biodistribution, Spleen",[1]; 120min p.i.,0.61 %ID/g
same,"Biodistribution, Stomach",[1]; 120min p.i.,4.84 %ID/g
same,"Biodistribution, Tumor",[1]; 120min p.i.,3.15 %ID/g
same,in vitro uptake,[2],3.11±0.41%
same,in vitro uptake,[3],2.41±0.17%
same,"tumor uptake, quantitative PET image analysis",[4]; 30min post i.v. injection,12.01±1.61 %ID/cc
same,"tumor uptake, quantitative PET image analysis",[4]; 120min post i.v. injection,3.34±0.32 %ID/cc
same,in vitro uptake,[5],3.18±0.19%
same,tumor uptake after in vivo blocking by BCH,[6],significantly reduced
